Test results as given in paper PMC5847527, “Identification of a novel 2-oxindole fluorinated derivative as in vivo antitumor agent for prostate cancer acting via AMPK activation” (Scientific Reports, 2018).

Tests used:
[1] = system: PC-3, DU145 and LNCaP cells; experiment: Cell viability by cell counting (Trypan blue); format: cell-based; conditions: 25 µM
Method: Figure 3 Comparison of the effect of 2-oxindole fluorinated derivatives on the proliferation of human prostate cancer cells. (A) Normal (PTN2 and RWPE-1) and cancer (PC3,DU145 and LNCaP) prostate cells were treated with different doses of the compounds for 24 hours and cell viability was monitored by MTT assay. […] (C) PC-3, DU145 and LNCaP cells were treated with 25 µM of compound 8c for different times. Values were normalized with the control and represent the mean ± SD of at least three independent experiments. *p < 0.05 and **p < 0.01 compared to control by the Student’s - test.
To confirm the antiproliferative effect of compound 8c, cell viability was evaluated by cell counting at different times in PC-3, DU145 and LNCaP cells.
Cell viability was determined by 3-(4,5-dimethylthiazol-2-yl)-2,5-diphenyltetrazolium bromide (MTT) (Sigma-Aldrich) method. […] The optical density in each well was evaluated by measurement of absorbance at 490 and 650 nm using a microplate reader (ELX 800 Bio-Tek Intruments, INC). IC50 values were calculated using GraphPad Prism vs 6.0 (GraphPad Software, Inc, La Jolla, CA, USA). Cell viability was also determined by counting viable and dead cells by Trypan blue staining. Trypan blue positive and negative cells were counted using a Countess^TM automated cell counter (Invitrogen, Carlsbad, CA, USA). […]

Raptor = Raptor phosphorylation on Ser792 by Western blot in PC-3 and LNCaP cells; format: cell-based, human; conditions: 25 µM
Method: (§1) To further confirm the compound 8c-induced activation of AMPK, PC-3 and LNCaP cells were incubated with the compound for 1 h and 24 hours in the presence of the AMPK inhibitor Dorsomorphin. […] Accordingly, ACC phosphorylation was increased at 1 h and 24 h and prevented by Dorsomorphin in both cell lines. AMPK inhibits mTORC1 through phosphorylation of Raptor on two well-conserved serine residues (ser722 and ser792) inducing cell-cycle arrest in response to an energy stress. To further support the 8c-induced AMPK activation, we determined Raptor phosphorylation on Ser792 in prostate cells.
(§2) Figure 5 AMPK activation by compound 8c in prostate cancer cells. (A) PC-3 and LNCaP cells were treated with vehicle, 25 µM compound 8c, 25 µM compound 8c + 5 μM Dorsomorphin (8c + D) or 5 μM Dorsomorphin (D), for 1 hour or 24 hours and levels of the phosphorylated AMPK (pAMPK), phosphorylated ACC (pACC), phosphorylated Raptor (pRaptor) forms and HIF1α were determined by Western blot. Upper panel, representative Western blot of three different experiments. β-tubulin (β-Tub) serves as a loading control. […] (B) Cell viability monitored by MTT assay in PC-3 and LNCaP cells treated with vehicle, 25 µM and 50 μM compound 8c alone or in the presence of 5 μM Dorsomorphin or transfected with control siRNA (siC) or α1AMPK-selective siRNA (siAMPK). […]

[2] = system: PTN2, RWPE-1, PC3, DU145 and LNCaP prostate cells; experiment: Cell viability by MTT assay, statements for the five cell lines together; format: cell-based, human
Method: We then study the effect of the compounds on the proliferative capacity of PC-3, DU145 and LNCaP prostate cells. We also used the prostate cell lines PTN2 and RWPE-1 which are derived from a histologically normal adult and therefore are considered as normal prostate cells, for comparison. All the compounds were tested at concentrations ranging from 1 to 100 μM.
(A) Normal (PTN2 and RWPE-1) and cancer (PC3,DU145 and LNCaP) prostate cells were treated with different doses of the compounds for 24 hours and cell viability was monitored by MTT assay. […] Values were normalized with the control and represent the mean ± SD of at least three independent experiments. *p < 0.05 and **p < 0.01 compared to control by the Student’s - test.
Human prostate cancer epithelial PC-3, DU145 and LNCaP and human prostate normal RWPE-1 cells were purchased from American Type Culture Collection (ATCC CRL-1435 CRL-1740 and CRL 11609 respectively) (Rockville, MD, USA). The human prostate normal PNT2 cell line was purchased to ECACC (European Collection of Cell cultures, Salisbury, SP4 0JG, UK). Cells were routinely grown in RPMI 1640 medium supplemented with 100 IU/ml penicillin G sodium, 100 µg/ml streptomycin sulfate, 0.25 µg/ml amphotericin B (Invitrogen, Paisley, UK) and 10% fetal calf serum. Cells were used at passages between 10–20. […]
Cell viability was determined by 3-(4,5-dimethylthiazol-2-yl)-2,5-diphenyltetrazolium bromide (MTT) (Sigma-Aldrich) method. […] The optical density in each well was evaluated by measurement of absorbance at 490 and 650 nm using a microplate reader (ELX 800 Bio-Tek Intruments, INC). IC50 values were calculated using GraphPad Prism vs 6.0 (GraphPad Software, Inc, La Jolla, CA, USA). Cell viability was also determined by counting viable and dead cells by Trypan blue staining. Trypan blue positive and negative cells were counted using a Countess^TM automated cell counter (Invitrogen, Carlsbad, CA, USA). Results were expressed in relation to total number of cells counted.

HIF-1A = HIF-1A expression by Western blot in PC-3 and LNCaP cells; format: cell-based, human; conditions: 25 µM
Method: as §1, §2

## O=C1Nc2ccccc2C1(F)Cc1ccc(-c2ccccc2)o1 (centres unmarked) [Compound 8c, 3-fluoro-3-((5-phenylfuran-2-yl)methyl)indolin-2-one]
[1]
  cytotoxic effect by cell counting at different times: time-dependent strong cytotoxic effect
Raptor
  Raptor phosphorylation on Ser792 (p-Raptor): increase in p-Raptor
[2]; 100 µM
  inhibition of cell viability at 100 µM: almost totally inhibited cell viability
[2]; 1–100 µM, dose-dependent, 24 hours
  inhibition of cell proliferation: effectively inhibited cell proliferation
HIF-1A
  expression of HIF-1A: expression of HIF-1A was decreased
